Source: ChEMBL document CHEMBL1153587, “Design, synthesis and biological evaluation of novel nitrogen and sulfur containing hetero-1,4-naphthoquinones as potent antifungal and antibacterial agents” (2009)
≈ marks a conversion by molar mass, not a printed value.

How the values were obtained:
Assay type in all cases: functional
Klebsiella pneumoniae = assay: Antibacterial activity against Klebsiella pneumoniae ATCC 27736 after 24 hrs by broth microdilution method
Escherichia coli = assay: Antibacterial activity against Escherichia coli after 24 hrs by broth microdilution method
Staphylococcus aureus = assay: Antibacterial activity against Staphylococcus aureus ATCC 25923 after 24 hrs by broth microdilution method
Aspergillus fumigatus = assay: Antifungal activity against Aspergillus fumigatus after 72 hrs by broth microdilution method
Candida parapsilosis = assay: Antifungal activity against Candida parapsilosis ATCC 22019 after 48 hrs by broth microdilution method; settings: Lodderomyces parapsilosis, ATCC 22019, 48 h
[1] = tested on: Trichophyton mentagrophytes; assay: Antifungal activity against sTrichophyton mentagrophytes after 96 hrs by broth microdilution method
Sporothrix schenckii = assay: Antifungal activity against Sporothrix schenckii after 72 hrs by broth microdilution method
Cryptococcus neoformans = assay: Antifungal activity against Cryptococcus neoformans after 72 hrs by broth microdilution method
Candida albicans = assay: Antifungal activity against Candida albicans after 48 hrs by broth microdilution method

Molecule | MIC (Klebsiella pneumoniae; ATCC 27736, 24 h) [µg/mL] | MIC (Escherichia coli) [µg/mL] | MIC (Staphylococcus aureus; ATCC 25923, 24 h) [µg/mL] | MIC (Aspergillus fumigatus) [µg/mL] | MIC (Candida parapsilosis) [µg/mL] | MIC [1] [µg/mL] | MIC (Sporothrix schenckii) [µg/mL] | MIC (Cryptococcus neoformans) [µg/mL] | MIC (Candida albicans) [µg/mL] | MIC (Klebsiella pneumoniae) [µg/mL] | MIC (Staphylococcus aureus) [µg/mL]
O=C1C(Cl)=C(Sc2cccc3ccccc23)C(=O)c2ccccc21 | > 50 | 25 (≈ 71.3 µM) | > 50 |  |  |  |  |  |  |  | 
O=C1C(Sc2cccc3ccccc23)=C(N(c2ccccc2)c2ccccc2)C(=O)c2ccccc21 |  |  |  | 50 (≈ 103 µM) | > 50 | 50 (≈ 103 µM) | > 50 | > 50 | 25 (≈ 51.7 µM) |  | 
COc1ccc2[nH]c3c(=O)c4ccccc4c(=O)c=3sc2c1 | > 50 | 25 (≈ 80.8 µM) | 12.5 (≈ 40.4 µM) |  |  |  |  |  |  |  | 
O=C1C(Cl)=C(Sc2ccccc2)C(=O)c2ccccc21 | > 50 | 12.5 (≈ 41.6 µM) | 25 (≈ 83.1 µM) |  |  |  |  |  |  |  | 
C[C@@H]1[C@H](O)[C@@H](C)/C=C/C=C/C=C/C=C/C=C/C=C/C=C/[C@H](O[C@@H]2O[C@H](C)[C@@H](O)[C@H](N)[C@@H]2O)C[C@@H]2O[C@](O)(C[C@@H](O)C[C@@H](O)[C@H](O)CC[C@@H](O)C[C@@H](O)CC(=O)O[C@H]1C)C[C@H](O)[C@H]2C(=O)O [AMPHOTERICIN B] |  |  |  |  |  | 1.56 (≈ 1.69 µM) |  | 0.78 (≈ 0.844 µM) | 0.39 (≈ 0.422 µM) |  | 
O=C1C(Nc2ccccc2)=C(Sc2ccccc2)C(=O)c2ccccc21 | 25 (≈ 69.9 µM) | > 50 | > 50 |  |  |  |  |  |  |  | 
Clc1ccc(COC(Cn2ccnc2)c2ccc(Cl)cc2Cl)c(Cl)c1 (stereo not given) [MICONAZOLE] |  |  |  | 12.5 (≈ 30 µM) |  | < 0.78 |  | 12.5 (≈ 30 µM) | 25 (≈ 60.1 µM) |  | 
O=C1C(Sc2ccccc2)=C(N(c2ccccc2)c2ccccc2)C(=O)c2ccccc21 | 50 (≈ 115 µM) | > 50 | 50 (≈ 115 µM) |  |  |  |  |  |  |  | 
O=c1c2[nH]c3ccccc3sc=2c(=O)c2ccccc12 | > 50 | 25 (≈ 89.5 µM) | 25 (≈ 89.5 µM) |  |  |  |  |  |  |  | 
GENTAMICIN |  | 0.18 |  |  |  |  |  |  |  | 0.39 | 0.78
N#Cc1ccccc1NC1=C(Cl)C(=O)c2ccccc2C1=O |  |  |  | > 50 | 25 (≈ 81 µM) | > 50 | > 50 | 50 (≈ 162 µM) | 50 (≈ 162 µM) |  | 
Nc1c2ccccc2nc2c(=O)c3ccccc3c(=O)c=2n1-c1ccccc1 |  |  |  | > 50 | 25 (≈ 68.4 µM) | 12.5 (≈ 34.2 µM) | > 50 | 25 (≈ 68.4 µM) | 25 (≈ 68.4 µM) |  | 
O=C1C(Cl)=C(Nc2ccc(O)cc2)C(=O)c2ccccc21 | 6.25 (≈ 20.9 µM) | > 50 | 6.25 (≈ 20.9 µM) | 3.12 (≈ 10.4 µM) | 6.25 (≈ 20.9 µM) | 1.56 (≈ 5.2 µM) | 1.56 (≈ 5.2 µM) | 0.78 (≈ 2.6 µM) | 1.56 (≈ 5.2 µM) |  | 
N#Cc1ccccc1NC1=C(Nc2ccccc2C#N)C(=O)c2ccccc2C1=O |  |  |  | > 50 | 50 (≈ 128 µM) | > 50 | > 50 | 25 (≈ 64 µM) | > 50 |  | 
NC1=C(Sc2cccc3ccccc23)C(=O)c2ccccc2C1=O | 12.5 (≈ 37.7 µM) | > 50 | 12.5 (≈ 37.7 µM) | 25 (≈ 75.4 µM) | 50 (≈ 151 µM) | 25 (≈ 75.4 µM) | > 50 | 50 (≈ 151 µM) | 25 (≈ 75.4 µM) |  | 
